Test results taken from patent US20240352040A1, “CRYSTAL FORM OF RIPK1 INHIBITOR, ACID SALT THEREOF, AND CRYSTAL FORM OF ACID SALT THEREOF” (GENFLEET THERAPEUTICS (SHANGHAI) INC., priority 2021, published 2024).
In brackets after ≈: the same amount, converted by molar mass. Counter-ions that a name gives are not always drawn. Like-named read-outs stand apart in the source and are kept apart here. Values belong to the compound of their own block, whether it stands above or below them.

What was measured:
[1] = Rough solubility in different solvent systems at room temperature; assay type: physicochemical; details: 50 °C, organic solvent or mixture, thermodynamic from solid, *Dissolve to clear at 50° C.
[2] = as above; assay type: physicochemical
Protocol: The rough solubility of the free base anhydrous crystal form A of the compound of formula I obtained in Example 1 and the monohydrate crystal form C of the sulfate salt of the compound of formula I obtained in Example 4 was tested in different solvent systems at room temperature. About 2 mg of the solid sample was weighed into an HPLC vial, and then the corresponding solvent was gradually (50/50/200/700 μL in sequence) added thereto and shaken until the solid dissolved to clear. If the sample was still not dissolved to clear after the addition of 1 mL of solvent, no more solvent would be added. The rough solubility ranges calculated from the mass of the solid sample, the volume of the added solvent, and the observed dissolution phenomena are shown in Table 25-1 and Table 25-2.

L929 cells = test: Inhibition of TNF-α-induced programmed necrosis of L929 cells, CellTiter-Glo; assay type: cell-based; details: 30 ng/mL mouse TNF-α + 15 μM Z-VAD, 6 hours, read-out: inhibitory IC50 against programmed necroptosis of cells induced by TNF-α
Protocol: (§1) The U937 cell line used in the following test examples was derived from ATCC, No.: CRL-1593.2, batch No.: 63479999, culture medium: RPMI-1640+10% FBS. The L929 cell line used in the following test examples was derived from ATCC, No.: CCL-1, batch No.: 70001022, culture medium: MEM+10% FBS+1% PS. […]
The compound was dissolved in DMSO to prepare a 10 mM stock solution and diluted 3.16-fold with DMSO to a series of gradient concentrations. […] After sufficient lysis reaction, the chemiluminescence readings were recorded by a microplate reader. The survival rate was calculated from the detection results using the equation as follows: SR (%)=(RLU compound−RLU blank)/(RLU high control−RLU blank)×100%. […]

RIPK1 = molecular target: T1, RIPK1 (Homo sapiens, UniProt Q13546); test: Inhibitory activity against RIPK1 enzyme, P33-ATP / MBP substrate radiometric assay; assay type: biochemical; details: 36 nM RIPK1, 0.33 mg/mL MBP, 155 μM P33 ATP, 2 hours room temperature
T1 construct: purchased Eurofins 16-022
T1 sequence (Q13546 1-671): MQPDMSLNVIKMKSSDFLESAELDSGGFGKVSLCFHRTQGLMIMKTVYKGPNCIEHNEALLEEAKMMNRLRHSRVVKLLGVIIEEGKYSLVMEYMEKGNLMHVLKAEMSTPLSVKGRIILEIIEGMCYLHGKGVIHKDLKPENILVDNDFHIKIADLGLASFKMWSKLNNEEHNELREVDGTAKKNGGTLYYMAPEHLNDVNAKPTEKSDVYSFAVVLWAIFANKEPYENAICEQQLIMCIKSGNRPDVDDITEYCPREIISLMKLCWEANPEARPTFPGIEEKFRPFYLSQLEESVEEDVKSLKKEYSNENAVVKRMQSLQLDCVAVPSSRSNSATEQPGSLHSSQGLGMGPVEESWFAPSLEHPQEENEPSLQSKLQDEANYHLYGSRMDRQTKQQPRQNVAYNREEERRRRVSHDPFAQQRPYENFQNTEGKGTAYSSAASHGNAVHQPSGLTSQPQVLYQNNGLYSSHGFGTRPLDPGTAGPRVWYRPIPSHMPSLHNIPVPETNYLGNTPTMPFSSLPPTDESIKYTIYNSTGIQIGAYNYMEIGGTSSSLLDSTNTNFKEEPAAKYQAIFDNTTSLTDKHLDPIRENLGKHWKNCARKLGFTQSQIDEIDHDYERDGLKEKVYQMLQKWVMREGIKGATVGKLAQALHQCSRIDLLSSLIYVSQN
Protocol: as §1
The test compound was dissolved in DMSO to prepare a 10 mM stock solution, and diluted 3.16-fold with DMSO to a series of gradient concentrations. […] The final reaction system was detected using a liquid scintillation counter after treatment. The result after detection was subtracted from the blank control and converted to the percentage of activity compared with the reading of the control group. […]

U937 cells = test: Inhibition of TNF-α-induced programmed cell necrosis (necroptosis) in U937 cells, CellTiter-Glo; assay type: cell-based; details: U-937, human TNF-α + Q-VD-Oph, 48 hours, read-out: inhibitory IC50 against programmed necroptosis of cells induced by TNF-α
Text: The U937 cell line used in the following test examples was derived from ATCC, No.: CRL-1593.2, batch No.: 63479999, culture medium: RPMI-1640+10% FBS. The L929 cell line used in the following test examples was derived from ATCC, No.: CCL-1, batch No.: 70001022, culture medium: MEM+10% FBS+1% PS. The reagents used, their suppliers, and item numbers are as follows: RPMI-1640, Gibco, 11875-093; FBS, Gibco, 10099-141; Trypsin-EDTA, Gibco, 25200-072; PS, Gibco, 15140-122; CellTiter Glo, Promega, G7573; DMSO, VWR AMRESCO, 0231-500ML; TNF-α protein (human, recombinant), Peprotech, 300-01A; Q-VD-Oph, MCE, HY-12305; V-bottom plate, Corning, 3894; 384-well low flange white flat bottom microplate, Corning, 3570; RIPK1, Eurofins, 16-022; MOPS, BDH, 441644J; EDTA, Sigma, E5134; myelin basic protein, Sigma, M1891-25.00 MG; magnesium acetate, Merck, DU008026; ATP (non-radioactive labelled), Sigma, A-7699; ATP (radioactive labelled), Hartmann Analytic, DU008054; phosphoric acid, Metlab, DU003000; Z-VAD: Shanghai Twochem, YA02401.
The test compound was dissolved in DMSO and diluted to a series of concentration gradients with DMSO. […] After sufficient lysis reaction, the chemiluminescence readings were recorded by a microplate reader. The survival rate was calculated from the detection results using the equation as follows: SR (%)=(RLU compound−RLU blank)/(RLU high control−RLU blank)×100%. […]

[3] = Solid state stability (XRPD crystal form, HPLC purity); assay type: physicochemical; details: for Purity / Purity/initial purity / Initial purity: HPLC; for Crystal form transition: XRPD; for Initial purity: before the stability test, monohydrate crystal form C of sulfate salt
Protocol: (6) High performance liquid chromatography (HPLC): Purity and solubility in the test were determined by Agilent 1260 high performance liquid chromatograph, and the analytical conditions are shown in Table 4.
Appropriate amounts of the samples of the monohydrate crystal form C of the sulfate salt […], and then placed for one week in an open state of 40° C./75% RH. Solid samples separated under different conditions were respectively subjected to XRPD test to evaluate the transition of crystal forms, and subjected to HPLC test to evaluate purity and chemical stability.

[4] = Suspension competition test between crystal forms of the sulfate salt (anhydrous/hydrate transformation relationship); assay type: physicochemical
Protocol: A suspension competition test between the anhydrous crystal form A of the sulfate salt obtained in Example 5 and the anhydrous crystal form D of the sulfate salt obtained in Example 19 was set up, including conditions of 5° C., 25° C., and 50° C. in methanol and 25° C. in ACN. (Test numbers are from A1 to A4)
A suspension competition test between the monohydrate crystal form C of the sulfate salt obtained in Example 4 and the anhydrous crystal form A of the sulfate salt obtained in Example 5 was set up at room temperature, including a suspension competition test in ACN/H2O (aw=0/0.2/0.4/0.6/0.8) of different water activities at room temperature. (Test numbers are from B1 to B5)
The specific steps are as follows: 1) saturated solutions of sulfate salt in different solvent systems at room temperature were prepared; 2) equal mass of the corresponding samples of crystal form of sulfate salt (about 5 mg each) were added to 1 mL of saturated solution to form a suspension, respectively; 3) the suspension was magnetically stirred at corresponding temperature; 4) the remaining solid was separated and tested by XRPD.

[5] = Hygroscopicity by dynamic vapor sorption (DVS) at 25° C.; assay type: physicochemical
Protocol: (3) Dynamic vapor sorption (DVS): Dynamic vapor sorption (DVS) curves were collected on DVS Intrinsic from SMS (surface measurement systems). The relative humidity at 25° C. was corrected using the deliquescence points of LiCl, Mg(NO3)2, and KCl.
The hygroscopicity of the sample of the monohydrate crystal form C of the sulfate salt obtained in […] was evaluated through the DVS test from 0% RH to […] at 25° C.

[6] = 40° C./75% RH/1 week, open, listed as Example 4
[7] = 40° C./75% RH/1 week, open, listed as Example 9
[8] = 60° C./sealed/1 week, listed as Example 4
[9] = 60° C./sealed/1 week, listed as Example 9
[10] = sealed 24 hours at 60° C., open one week at 40° C./75% RH, two batches

Structure (SMILES): Nc1nc2cc(-c3cnc4c(c3)C(=O)N(Cc3cc(OC(F)(F)F)ccc3F)CC4)ccn2n1
- solubility ([1]; isopropanol): < 2400 µg/mL
- solubility ([2]; dimethyl sulfoxide, organic solvent or mixture, thermodynamic from solid, Dimethyl sulfoxide, read-out: Solubility): > 42000 µg/mL

Structure (SMILES): Nc1nc2cc(-c3cnc4c(c3)C(=O)N(Cc3cc(OC(F)(F)F)ccc3F)CC4)ccn2n1 [compound of formula I, 3-(2-amino-[1,2,4]triazolo[1,5-a]pyridin-7-yl)-6-(2-fluoro-5-(trifluoromethoxy)benzyl)-7,8-dihydro-1,6-naphthyridin-5(6H)-one]
- IC50 (L929 cells): 3 nM
- IC50 (RIPK1): 39 nM
- IC50 (U937 cells): 6 nM

Structure (SMILES): Nc1nc2cc(-c3cnc4c(c3)C(=O)N(Cc3cc(OC(F)(F)F)ccc3F)CC4)ccn2n1 [free base anhydrous crystal form A, 3-(2-amino-[1,2,4]triazolo[1,5-a]pyridin-7-yl)-6-(2-fluoro-5-(trifluoromethoxy)benzyl)-7,8-dihydro-1,6-naphthyridin-5(6H)-one]
- solubility ([1]; dimethyl sulfoxide): 7700 to 23000 µg/mL (≈ 16.3 to 48.7 mM)
- solubility ([2]; Methanol): S < 1.8 mg/mL
- solubility ([2]; acetone, organic solvent or mixture, thermodynamic from solid, Acetone, read-out: Solubility): < 1800 µg/mL
- solubility ([2]; acetonitrile, organic solvent or mixture, thermodynamic from solid, Acetonitrile, read-out: Solubility): < 1900 µg/mL
- solubility ([2]; ethanol, organic solvent or mixture, thermodynamic from solid, Ethanol, read-out: Solubility): < 2200 µg/mL
- solubility ([2]; isopropanol, organic solvent or mixture, thermodynamic from solid, Isopropanol, read-out: Solubility): < 1900 µg/mL
- solubility ([2]; n-heptane, organic solvent or mixture, thermodynamic from solid, n-Heptane, read-out: Solubility): < 1700 µg/mL
- solubility ([2]; water, thermodynamic from solid, Water, read-out: Solubility): < 2100 µg/mL

Structure (SMILES): Nc1nc2cc(-c3cnc4c(c3)C(=O)N(Cc3cc(OC(F)(F)F)ccc3F)CC4)ccn2n1 [monohydrate crystal form C of the sulfate salt]
- Purity [3, 6]: 99.46%
- Purity/initial purity [3, 6]: 99.98%
- Purity [3, 7]: 99.45%
- Purity/initial purity [3, 7]: 99.93%
- Crystal form transition ([3]; 40° C./75% RH/1 week, open): No
- Purity [3, 8]: 99.47%
- Purity/initial purity [3, 8]: 99.99%
- Purity [3, 9]: 99.39%
- Purity/initial purity [3, 9]: 99.87%
- Crystal form transition ([3]; 60° C./sealed/1 week): No
- Initial purity ([3]; listed as Example 4): 99.48%
- Initial purity ([3]; listed as Example 9): 99.52%
- change in HPLC purity [3, 10]: do not show any significant decrease
- change of crystal form (XRPD) [3, 10]: does not change
- thermodynamic stability range under different water activities ([4]; room temperature): relatively wide
- hygroscopicity assessment ([5]; DVS, 25° C.): slightly hygroscopic
- hygroscopic weight gain ([5]; DVS, 25° C./80% RH): about 0.2700
- crystal form transition after the DVS test (XRPD) ([5]; after DVS test): no crystal form transition
- solubility ([2]; Acetone): S < 2.4 mg/mL
- solubility ([2]; Acetonitrile): S < 2.4 mg/mL
- solubility ([2]; Water): S < 2.4 mg/mL
- solubility ([2]; n-Heptane): S < 2.3 mg/mL

- solid form obtained after stirring in water ([4]; water, water activity of about 1): free base crystal form A was obtained
Structure (SMILES): O=S(=O)(O)O [sulfate]
